According to patent publication US20250074901A1, “NOVEL HETEROARYL COMPOUNDS” (ICAGEN, LLC, priority 2021, published 2025):

Molecular target: T1, Kv7.2 (Homo sapiens, UniProt O43526)
T1 construct: expressed in transfected cells
Test: Activation of Kv7.2 (in vitro assay, concentration response curve)
Format: cell-based
Conditions: for Emax: Kv7.2 activation max %; for EC50: activation of Kv7.2
Protocol: The term “EC50” in this application is defined as: the agonistic effect of a compound can be determined by testing the compound in an in vitro assay as described herein, whereby the effect of the compound is measured across a range of compound concentrations. The resulting data is plotted as a concentration response curve, which typically follows a sigmoidal function, whereby the concentration of the compound is plotted on the x axis and the response (agonistic effect) is plotted on the y axis. The term “EC50” is the “half maximal effective concentration” and denotes the concentration of a particular compound required to obtain 50% of the maximum response (Emax) which is observed for that compound in the given in vitro assay.

Emax [%]	EC50 [nM]	SMILES
59	1310	CC1(C)CCC(NC(=O)NCc2ccnc(-n3ccnc3)c2)CC1 [Example 37, 1-(4,4-dimethylcyclohexyl)-3-[(2-imidazol-1-ylpyridin-4-yl)methyl]urea]
58	70	O=C(NCc1ccnc(OC(F)F)c1)N[C@H]1C[C@H](C(F)(F)F)C1 [Example 42, 1-[[2-(difluoromethoxy)pyridin-4-yl]methyl]-3-[(1r,3r)-3-(trifluoromethyl)cyclobutyl]urea]
48	360	O=C(NCc1ccnc(CC(F)(F)F)c1)Nc1ccc(F)c(F)c1 [Example 274, 1-(3,4-difluorophenyl)-3-[[2-(2,2,2-trifluoroethyl)pyridin-4-yl]methyl]urea]
40	1540	C[C@]1(NC(=O)NCc2ccnc(OC(F)F)c2)C[C@@H](C(F)(F)F)C1 [Example 194, 1-[[2-(difluoromethoxy)pyridin-4-yl]methyl]-3-[(1r,3r)-1-methyl-3-(trifluoromethyl)cyclobutyl]urea]
68	7430	O=C(NCc1ccnc(OC(F)F)c1)NN1CC2CCCC2C1 (stereo not drawn) [Example 114, 1-(3,3a,4,5,6,6a-hexahydro-1H-cyclopenta[c]pyrrol-2-yl)-3-[[2-(difluoromethoxy)pyridin-4-yl]methyl]urea]
44	6510	CC1(C)C[C@H](NC(=O)NCc2ccnc(-n3cnc(C(F)(F)F)c3)c2)[C@@H]1O (racemic) [Example 99, 1-[rac-(1R,2S)-2-hydroxy-3,3-dimethylcyclobutyl]-3-[[2-[4-(trifluoromethyl)imidazol-1-yl]pyridin-4-yl]methyl]urea]
40	4160	O=C(NCc1ccnc(OC(F)F)c1)N[C@@H]1CC[C@@H]1F (racemic) [Example 123, 1-[[2-(difluoromethoxy)pyridin-4-yl]methyl]-3-[rac-(1R,2S)-2-fluorocyclobutyl]urea]
50	8300	O=C(NCc1ccnc(OC(F)F)c1)NC1(C(F)(F)F)CC1 [Example 175, 1-[[2-(difluoromethoxy)pyridin-4-yl]methyl]-3-[I-(trifluoromethyl)cyclopropyl]urea]
43	260	O=C(NCc1ccnc(OCF)c1)Nc1ccc(F)c(F)c1 [Example 249, 1-(3,4-difluorophenyl)-3-[[2-(fluoromethoxy)pyridin-4-yl]methyl]urea]
54	4930	CC(F)(F)c1cc(CNC(=O)NC23CC(F)(C2)C3)ccn1 [Example 200, 1-[[2-(1,1-difluoroethyl)pyridin-4-yl]methyl]-3-(3-fluoro-1-bicyclo[1.1.1]pentanyl)urea]
62	150	O=C(NCc1ccnc(OCC2CCC2)c1)N[C@H]1C[C@H](C(F)(F)F)C1 [Example 54, 1-[[2-(cyclobutylmethoxy)pyridin-4-yl]methyl]-3-[(1r,3r)-3-(trifluoromethyl)cyclobutyl]urea]
45	2470	COc1cccc(NC(=O)NCc2ccnc(OC(F)F)c2)c1 [Example 83, 1-[[2-(difluoromethoxy)pyridin-4-yl]methyl]-3-(3-methoxyphenyl)urea]
75	120	O=C(NCc1ccnc(OC(F)F)c1)N[C@@H]1CCC[C@H](C(F)(F)F)C1 [Example 250, 1-[[2-(difluoromethoxy)pyridin-4-yl]methyl]-3-[(1R,3S)-3-(trifluoromethyl)cyclohexyl]urea]
53	4970	COc1cc(CNC(=O)NC23CCC(F)(CC2)CC3)ccn1 [Example 129, 1-(4-fluoro-1-bicyclo[2.2.2]octanyl)-3-[(2-methoxypyridin-4-yl)methyl]urea]
62	140	O=C(NCc1ccnc(OCC(F)(F)F)c1)Nc1cccc(F)c1F [Example 248, 1-(2,3-difluorophenyl)-3-[[2-(2,2,2-trifluoroethoxy)pyridin-4-yl]methyl]urea]
40	3660	O=C(NCc1ccnc(OC(F)F)c1)N[C@H]1C[C@](O)(C(F)(F)F)C1 [Example 100, 1-[[2-(difluoromethoxy)pyridin-4-yl]methyl]-3-[(1s,3s)-3-hydroxy-3-(trifluoromethyl)cyclobutyl]urea]
56	450	O=C(NCc1ccnc(OC(F)F)c1)NC1CCC(F)(F)C1 (stereo not drawn) [Example 93, 1-(3,3-difluorocyclopentyl)-3-[[2-(difluoromethoxy)pyridin-4-yl]methyl]urea]
56	530	C#CC1CC(NC(=O)NCc2ccnc(OC(F)F)c2)C1 (stereo not drawn) [Example 66, 1-[[2-(difluoromethoxy)pyridin-4-yl]methyl]-3-(3-ethynylcyclobutyl) urea]

Emax [%]	EC50 [nM]	SMILES
84	30	O=C(Nc1cc(F)cc(F)c1)NC(CO)c1ccnc(OCC(F)(F)F)c1 (stereo not drawn) [Example 256, 1-(3,5-difluorophenyl)-3-[2-hydroxy-1-[2-(2,2,2-trifluoroethoxy)pyridin-4-yl]ethyl]urea]
61	240	O=C(NCc1ccnc(OCC(F)(F)F)c1)N[C@H](C1CC1)C(F)(F)F [Example 257, 1-[(1R)-1-cyclopropyl-2,2,2-trifluoroethyl]-3-[[2-(2,2,2-trifluoroethoxy)pyridin-4-yl]methyl]urea]
52	1520	O=C(NCc1ccnc(-n2ccnc2)c1)NC1CCCC(C2CC2)C1 (stereo not drawn) [Example 8, 1-(3-cyclopropylcyclohexyl)-3-[(2-imidazol-1-ylpyridin-4-yl)methyl]urea]
57	420	O=C(NCc1ccnc(OC(F)F)c1)NCC12CC(C1)C2 [Example 31, 1-(1-bicyclo[1.1.1]pentanylmethyl)-3-[[2-(difluoromethoxy)pyridin-4-yl]methyl]urea]
66	550	C[C@@H](O)C(NC(=O)N[C@H]1C[C@H](C(F)(F)F)C1)c1ccnc(OC(F)F)c1 (stereo partly drawn) [Example 286, 1-[(2R)-1-[2-(difluoromethoxy)pyridin-4-yl]-2-hydroxypropyl]-3-[(1r,3r)-3-(trifluoromethyl)cyclobutyl]urea]
63	7870	O=C(NCc1ccnc(OC(F)F)c1)N[C@H]1CCC[C@H]1O (racemic) [Example 118, 1-[[2-(difluoromethoxy)pyridin-4-yl]methyl]-3-[rac-(1R,2S)-2-hydroxycyclopentyl]urea]
78	2570	O=C(NCc1ccnc(OC(F)F)c1)N[C@@H]1CC[C@@H]1C(F)(F)F (racemic) [Example 255, 1-[[2-(difluoromethoxy)pyridin-4-yl]methyl]-3-[rac-(1R,2S)-2-(trifluoromethyl)cyclobutyl]urea]
54	1390	O=C(NCCC1=CCCCC1)NCc1ccnc(-n2cccn2)c1 [Example 10, 1-[2-(cyclohexen-1-yl)ethyl]-3-[(2-pyrazol-1-ylpyridin-4-yl)methyl]urea]
57	440	O=C(NCc1ccnc(OC(F)F)c1)N[C@H]1CC[C@H](F)C1 [Example 239, 1-[[2-(difluoromethoxy)pyridin-4-yl]methyl]-3-[(1S,3S)-3-fluorocyclopentyl]urea]
43	750	O=C(NCc1ccnc(OC(F)F)c1)NCC1CC(C(F)(F)F)C1 (stereo not drawn) [Example 62, 1-[[2-(difluoromethoxy)pyridin-4-yl]methyl]-3-[[3-(trifluoromethyl)cyclobutyl]methyl]urea]
42	760	O=C(NCc1ccnc(OC(F)F)n1)N[C@H]1C[C@H](C(F)(F)F)C1 [Example 243, 1-[[2-(difluoromethoxy)pyrimidin-4-yl]methyl]-3-[(1r,3r)-3-(trifluoromethyl)cyclobutyl]urea]
68	130	Cc1cccc(NC(=O)NC(CO)c2ccnc(OCC(F)(F)F)c2)c1 (stereo not drawn) [Example 233, 1-[2-hydroxy-1-[2-(2,2,2-trifluoroethoxy)pyridin-4-yl]ethyl]-3-(3-methylphenyl)urea]
55	1810	C[C@]1(O)CCC[C@@H]1NC(=O)NCc1ccnc(OC(F)F)c1 [Example 184, 1-[[2-(difluoromethoxy)pyridin-4-yl]methyl]-3-[(1S,2S)-2-hydroxy-2-methylcyclopentyl]urea]
58	1140	O=C(NCc1ccnc(-n2cccn2)c1)NC12CC(C(F)(F)F)(C1)C2 [Example 6, 1-[(2-pyrazol-1-ylpyridin-4-yl)methyl]-3-[3-(trifluoromethyl)-1-bicyclo[1.1.1]pentanyl]urea]
71	30	O=C(NCc1ccnc(OC(F)F)c1)N[C@H]1CC[C@@H]2CCC[C@@H]21 [Example 103, 1-[(1S,3aS,6aS)-1,2,3,3a,4,5,6,6a-octahydropentalen-1-yl]-3-[[2-(difluoromethoxy)pyridin-4-yl]methyl]urea]
75	70	O=C(NCc1ccnc(OC(F)F)c1)NC1CC[C@@H]2CC[C@H]12 (mixture of isomers) [Example 196, 1-[[2-(difluoromethoxy)pyridin-4-yl]methyl]-3-[rac-(1R,5R)-2-bicyclo[3.2.0]heptanyl]urea]
82	990	O=C(NCc1ccnc(OCC(F)(F)F)c1)NCC1(C(F)(F)F)CC1 [Example 284, 1-[[2-(2,2,2-trifluoroethoxy)pyridin-4-yl]methyl]-3-[[1-(trifluoromethyl)cyclopropyl]methyl]urea]

SMILES	Emax [%]	EC50 [nM]
C[Si](C)(C)CCNC(=O)NCc1ccnc(OC(F)F)c1 [Example 212, 1-[[2-(difluoromethoxy)pyridin-4-yl]methyl]-3-(2-trimethylsilylethyl) urea]	82	400
